Results: PMC6927398 (Journal of the American Chemical Society, 2019)

Molecular target: IvoA (Aspergillus nidulans, UniProt C8V7P4)
Test: chiral HPLC of D-tryptophan formation, steady-state kinetics
Type: biochemical
Conditions: substrate inhibition; ATP-dependent stereoinversion, apparent constant

IvoA, sequence (C8V7P4 whole entry): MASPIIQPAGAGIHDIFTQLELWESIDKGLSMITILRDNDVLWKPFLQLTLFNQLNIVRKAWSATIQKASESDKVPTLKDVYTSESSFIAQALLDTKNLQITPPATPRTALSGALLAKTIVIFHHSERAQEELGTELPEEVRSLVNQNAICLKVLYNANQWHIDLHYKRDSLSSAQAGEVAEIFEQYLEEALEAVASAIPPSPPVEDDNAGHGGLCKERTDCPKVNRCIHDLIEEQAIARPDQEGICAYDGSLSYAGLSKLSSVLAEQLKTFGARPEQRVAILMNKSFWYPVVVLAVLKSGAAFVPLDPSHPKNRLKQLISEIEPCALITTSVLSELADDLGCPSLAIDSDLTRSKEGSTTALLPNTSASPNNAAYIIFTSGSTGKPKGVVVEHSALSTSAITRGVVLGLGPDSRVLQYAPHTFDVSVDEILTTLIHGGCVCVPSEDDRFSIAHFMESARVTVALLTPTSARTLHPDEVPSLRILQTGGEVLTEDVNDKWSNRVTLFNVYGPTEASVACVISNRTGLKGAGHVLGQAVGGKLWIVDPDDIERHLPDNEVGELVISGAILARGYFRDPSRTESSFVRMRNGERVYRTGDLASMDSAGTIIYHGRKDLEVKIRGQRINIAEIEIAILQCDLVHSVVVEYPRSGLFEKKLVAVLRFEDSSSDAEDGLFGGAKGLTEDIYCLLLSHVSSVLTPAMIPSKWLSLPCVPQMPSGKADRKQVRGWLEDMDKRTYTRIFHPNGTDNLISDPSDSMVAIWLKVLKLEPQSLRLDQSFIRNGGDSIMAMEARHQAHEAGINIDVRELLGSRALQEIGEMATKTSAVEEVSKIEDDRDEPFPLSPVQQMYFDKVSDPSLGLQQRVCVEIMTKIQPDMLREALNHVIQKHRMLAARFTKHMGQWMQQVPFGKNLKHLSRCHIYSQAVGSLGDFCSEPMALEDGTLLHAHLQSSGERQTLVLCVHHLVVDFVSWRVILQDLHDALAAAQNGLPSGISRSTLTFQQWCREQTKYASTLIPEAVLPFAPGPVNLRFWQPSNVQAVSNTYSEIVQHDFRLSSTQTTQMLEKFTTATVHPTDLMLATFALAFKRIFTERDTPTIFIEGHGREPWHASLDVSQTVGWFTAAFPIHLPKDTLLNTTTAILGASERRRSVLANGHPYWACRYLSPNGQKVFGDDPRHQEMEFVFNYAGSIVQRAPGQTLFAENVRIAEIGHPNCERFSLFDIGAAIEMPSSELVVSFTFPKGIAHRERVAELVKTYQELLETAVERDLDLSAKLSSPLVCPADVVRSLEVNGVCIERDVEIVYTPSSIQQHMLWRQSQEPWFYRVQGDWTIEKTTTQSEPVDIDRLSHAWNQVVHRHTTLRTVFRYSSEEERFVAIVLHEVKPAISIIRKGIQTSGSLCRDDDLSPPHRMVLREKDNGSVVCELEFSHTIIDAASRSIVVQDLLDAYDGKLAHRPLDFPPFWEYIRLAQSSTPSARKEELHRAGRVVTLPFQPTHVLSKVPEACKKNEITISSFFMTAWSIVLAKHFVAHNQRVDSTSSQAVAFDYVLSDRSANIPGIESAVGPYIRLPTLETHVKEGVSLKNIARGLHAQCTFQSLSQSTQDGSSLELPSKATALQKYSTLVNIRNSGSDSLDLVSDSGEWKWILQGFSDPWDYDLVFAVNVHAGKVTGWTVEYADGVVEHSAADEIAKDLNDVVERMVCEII

Ki app: 4 ± 1 mM
SMILES: N[C@@H](Cc1c[nH]c2ccccc12)C(=O)O [L-tryptophan]
